Experimental data published in patent US9834558B2, “Substituted bridged urea analogs as sirtuin modulators” (GLAXOSMITHKLINE LLC, priority 2013, dated 2017).

Molecular target: T1, SIRT1 (Homo sapiens, UniProt Q96EB6)
T1 sequence (Q96EB6 1-747): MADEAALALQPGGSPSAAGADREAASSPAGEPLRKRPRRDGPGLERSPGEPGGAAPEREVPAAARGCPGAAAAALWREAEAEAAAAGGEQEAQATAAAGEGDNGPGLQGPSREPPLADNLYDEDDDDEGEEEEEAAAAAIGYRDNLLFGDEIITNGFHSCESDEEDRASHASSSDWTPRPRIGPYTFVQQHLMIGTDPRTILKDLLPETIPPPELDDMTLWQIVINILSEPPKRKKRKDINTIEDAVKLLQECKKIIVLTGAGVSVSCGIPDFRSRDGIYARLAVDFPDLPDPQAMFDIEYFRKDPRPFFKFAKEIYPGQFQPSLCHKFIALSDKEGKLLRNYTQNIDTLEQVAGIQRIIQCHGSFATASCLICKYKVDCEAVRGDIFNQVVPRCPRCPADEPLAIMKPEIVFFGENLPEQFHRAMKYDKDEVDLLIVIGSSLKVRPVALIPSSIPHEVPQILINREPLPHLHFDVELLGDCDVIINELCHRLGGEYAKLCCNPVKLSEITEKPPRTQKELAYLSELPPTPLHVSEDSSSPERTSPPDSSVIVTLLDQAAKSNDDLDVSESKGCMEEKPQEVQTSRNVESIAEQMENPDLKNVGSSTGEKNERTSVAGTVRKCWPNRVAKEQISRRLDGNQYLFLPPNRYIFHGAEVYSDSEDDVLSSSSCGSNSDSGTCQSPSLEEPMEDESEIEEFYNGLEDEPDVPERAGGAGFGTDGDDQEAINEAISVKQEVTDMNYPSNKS
Assay: Trp mass spectrometry assay of SIRT1 activation
Assay type: biochemical
Conditions: for TRP Activity (EC1.5) / Emax: Trp peptide assay; for TRP Activity (EC1.5): EC1.5 = concentration that results in 150% activation of SIRT1; for Emax: maximum activity relative to control (100%), read-out: TRP MAX RESP (percent maximum fold activation)
Summary of the method: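 Activation read-out: mass-spec measurement of O-acetyl-ADP-ribose or deacetylated Trp peptide versus compound-free controls, giving EC1.5 and Percent Maximum Activation. Reactions ran 25 min at 25 °C, pH 7.5, with 120 μM βNAD+, 0.5 μM acetylated p53-derived peptide and 10 nM His-tagged SIRT1.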

[1] = concentration giving 150% activation of SIRT1, Trp peptide substrate
[2] = Trp mass spectrometry assay, EC1.5 = concentration of test compound that results in 150% activation of SIRT1

Row | SMILES | TRP Activity (EC1.5) | Emax | Tryp AVG EC1.5 (μM) [1] | further results
1 | Cc1nc(NC(=O)N2c3nc(-c4cccc(C(F)(F)F)c4)ccc3N3CC[C@H]2C3)nc2c1CCC2 [Example 91] | – | – | – | Tryp AVG EC1.5 (μM) (Trp peptide substrate, concentration giving 150% activation of SIRT1): B (B (EC1.5 1-25 μM))
2 | Cc1cc(-c2ccc3c(n2)N(C(=O)Nc2cncc(C4CC4)n2)[C@H]2CCN3C2)ccn1 [(9S)-N-(6-cyclopropylpyrazin-2-yl)-5-(2-methylpyridin-4-yl)-1,6,8-triazatricyclo[7.2.1.0 {2,7}]dodeca-2(7),3,5-triene-8-carboxamide] | A (A (EC1.5<1 μM)) | > 150% | – | –
3 | Cc1cc(-c2ccc3c(n2)N(C(=O)Nc2ccc4nn(C)cc4c2)[C@H]2CCCN3C2)ccn1 [(9S)-N-(2-methyl-2H-indazol-5-yl)-5-(2-methylpyridin-4-yl)-1,6,8-triazatricyclo[7.3.1.0 {2,7}]trideca-2,4,6-triene-8-carboxamide] | A (A (EC1.5<1 μM)) | > 150% | – | –
4 | Cc1cncc(NC(=O)N2c3nc(-c4ccnc(C)c4)ccc3N3CC[C@H]2C3)c1 [(9S)-N-(5-methylpyridin-3-yl)-5-(2-methylpyridin-4-yl)-1,6,8-triazatricyclo[7.2.1.0 {2,7}]dodeca-2(7),3,5-triene-8-carboxamide] | B (B (EC1.5 1-25 μM)) | > 150% | – | –
5 | COc1cncc(NC(=O)N2c3nc(-c4cccc(N5CCCC5)c4)ccc3N3CC[C@H]2C3)n1 [Example 366] | – | – | – | Tryp AVG EC1.5 (μM) (Trp mass spectrometry assay, concentration of test compound giving 150% activation of SIRT1): A (A (EC1.5<1 μM))
6 | O=C(Nc1cccnn1)N1c2nc(-c3cccc(Cl)c3)ccc2N2CC[C@H]1C2 [Example 822] | – | – | A (A (EC1.5<1 μM)) | –
7 | Cc1cc(-c2ccc3c(n2)N(C(=O)Nc2nccc4[nH]cnc24)[C@H]2CCN3C2)ccn1 [(9S)-N-{1H-imidazo[4,5-c]pyridin-4-yl}-5-(2-methylpyridin-4-yl)-1,6,8-triazatricyclo[7.2.1.0 {2,7}]dodeca-2,4,6-triene-8-carboxamide] | B (B (EC1.5 1-25 μM)) | > 150% | – | –
8 | Cc1ccc(-c2ccc3c(n2)N(C(=O)Nc2ccnc(O[C@H]4CCOC4)n2)[C@H]2CCN3C2)cn1 [(9S)-5-(6-methylpyridin-3-yl)-N-{2-[(3S)-oxolan-3-yloxy]pyrimidin-4-yl}-1,6,8-triazatricyclo[7.2.1.0 {2,7}]dodeca-2,4,6-triene-8-carboxamide] | B (B (EC1.5 1-25 μM)) | > 150% | – | –
9 | Cc1cc(-c2ccc3c(n2)N(C(=O)Nc2cccnc2)[C@H]2CCN3C2)ccn1 [Example 498] | – | – | – | Tryp AVG EC1.5 (μM) [2]: A (A (EC1.5<1 μM))
10 | O=C(Nc1ccncn1)N1c2nc(-c3cccc(Cl)c3)ccc2N2CCC1CC2 [Example 534] | – | – | – | Tryp AVG EC1.5 (μM) [2]: B (B (EC1.5 1-25 μM))

More lines, main results first:

Row | TRP Activity (EC1.5) | Emax | Tryp AVG EC1.5 (μM) [1] | SMILES | further results
11 | A (A (EC1.5<1 μM)) | > 150% | – | O=C(Nc1cc(OC[C@@H](O)CO)ccn1)N1c2nc(-c3cccc(C(F)(F)F)c3)ccc2N2CC[C@H]1C2 [(9S)-N-{4-[(2S)-2,3-dihydroxypropoxy]pyridin-2-yl}-5-[3-(trifluoromethyl)phenyl]-1,6,8-triazatricyclo[7.2.1.0 {2,7}]dodeca-2(7),3,5-triene-8-carboxamide] | –
12 | – | – | A (A (EC1.5<1 μM)) | NCCCc1ccc(NC(=O)N2c3nc(-c4cccc(C(F)(F)F)c4)ccc3N3CCC[C@H]2C3)cc1-c1cnco1 [Example 767] | –
13 | – | – | A (A (EC1.5<1 μM)) | O=C(Nc1cccc(-c2cccnc2)c1)N1c2nc(-c3cccc(C(F)(F)F)c3)ccc2N2CC[C@H]1C2 [Example 660] | –
14 | – | – | B (B (EC1.5 1-25 μM)) | O=C(Nc1cncc(-c2cnco2)c1)N1c2nc(-c3cncc(F)c3)ccc2N2CC[C@H]1C2 [Example 716] | –
15 | – | – | A (A (EC1.5<1 μM)) | O=C(Nc1ccc(Br)c(-c2cnco2)c1)N1c2nc(-c3cccc(C(F)(F)F)c3)ccc2N2CC[C@H]1C2 [Example 672] | –
16 | – | – | A (A (EC1.5<1 μM)) | O=C(Nc1ccncc1)N1c2nc(-c3cccc(C(F)(F)F)c3)ccc2N2CCC[C@H]1C2 [Example 821] | –
17 | – | – | A (A (EC1.5<1 μM)) | CCC(=O)N1CCC(c2cccc(NC(=O)N3c4nc(-c5cccc(C(F)(F)F)c5)ccc4N4CC[C@H]3C4)c2)C1 (some centres unmarked) [Example 636] | –
